From patent US20250031689A1, “CRYOPRESERVATION COMPOSITIONS AND METHODS” (priority 2023, published 2025)

How the values were obtained:
[1] = test system: Cygnus monkey spermatozoa; details: at 5-10 mM; cited from earlier work
[2] = test system: ovine pre-adipocyte cells; experiment: Freeze-thaw cryoprotection of cells suspended in saline, cell yield by ImageJ (FIG. 4); format: cell-based
HEK293 cells = experiment: Freeze-thaw (-80° C.) cryoprotection of HEK293 cells, post-thaw attachment/viability; format: cell-based
Procedure: For the studies detailed below, the following procedures were used for preparation of cell cultures prior to cryopreservation: Both HEK-293 and HCT-115 cells were cultured in DMEM medium supplemented with 10% calf serum or 10% fetal calf serum. Two or three days prior to initiating a cryopreservation study, cells were seeded onto 100 mm tissue culture treated dishes in the above described culture medium and placed into a humidified, 5% CO2 incubator and allowed to propagate for 2 or 3 days. Preparation of growing cultures for cryostorage was performed as follows: Medium from 100 mm dishes containing growing cultures prepared as described above was aspirated and replaced with saline containing 0.5 mM EDTA and allowed to incubate for 2-3 minutes. This material was also aspirated and replaced with saline containing 0.25% trypsin and 0.25 mM EDTA. After incubating this second mixture for an additional 3-5 minutes and observing partial detachment of cells from dishes, cells were removed by using inertial force against the dish or by using a stream of saline or base culture medium to dislodge and collect cells from the dish. Cells harvested in this manner were separated by centrifugation (100 g×3 min), resuspended in the desired cryostorage solution, dispensed into polypropylene vials, positioned in microtube racks that were placed into a −80° C. freezer. Cells were kept frozen for 24-168 hours, at which time cryovials were removed to wet ice and cells thawed and plated into appropriate tissue culture vessels, typically 6 or 12 well plates. Cells were visualized with the aid of a Nikon TE300 microscope with an attached camera to allow documentation.
As described above, we wished to test the ability of amino acid species to serve as primary cryoprotectants per the definition provided, i.e. at concentrations at which they provided osmotic pressure sufficient to induce cell dehydration. For this purpose we prepared solutions of several amino acids, including alanine, glycine, proline, glutamate, histidine, aspartate, leucine, lysine, phenylalanine, threonine, arginine, and serine. These were standardized to 1M and adjusted to pH 7.1-pH 7.3, where possible or to maximal concentrations when 1M was above the solubility such as histidine and leucine. These solutions were used by dilution in water to test for their ability to serve as a cryoprotectant or diluted to the desired target concentration in a variety of base media including saline, and the two growth mediums described above (DMEM and OptiMeM) in the studies with three different mammalian cell lines described below described below.
FIG. 1. […] To test this capacity against a well-established cryoprotectant from those described above, HEK293 cultures were prepared as above in one of three base cryostorage mediums as noted below each pair of photographs depicted in panel A: (a) OptiMEM culture medium (ThermoFisher), a serum free growth medium, (b) DMEM culture medium containing 10% serum, or (c) 0.3M glutamate pH 7.2. One sample was prepared in each storage medium as described (labels on the bottom of each vertical pair of photographs), and an additional sample for each was prepared with 7.5% DMSO. 23 hours after plating thawed cells, cultures were visualized with 4× (upper) and 20× objectives (lower). […] The images were also analyzed using NIH Image to count cell numbers, depicted in panel B.
FIG. 2. […] HEK293 cells were prepared as described above in OptiMEM medium and apportioned into 4 samples containing 0 mM, 100 mM, 200 mM, or 300 mM glutamate (labels below photograph). After completing a freeze-thaw cycle, each sample was plated and visualized 23 hours after plating.

cells = details: NaCl at concentrations where glutamate acts as a CPA
Procedure: We developed a workflow that tested cryoprotection of cells suspended in physiological saline (150 mM NaCl), overcoming the need to resuspend centrifuged cells directly in a final cryoprotection buffer. […] Thus, in these studies, trypsinized cells were centrifuged as described above, but resuspended in saline prior to diluting into a test solution. The photographs in FIG. 4A depict representative fields at 4× magnification of 6-well plates seeded with ovine pre-adipocyte cells, frozen in solutions comprised of agents and concentrations indicated to the left of each row. The cells in each field were enumerated by using ImageJ (NIH) to carryout noise reduction and thresholding before enumerating cell particles (FIG. 4B). It should be noted that dilution of the initial saline sample contributed 0.105 M NaCl concentration in addition to the agents indicated to the left. To provide a positive sample, we also tested DMSO at three concentrations (1%, 3%, and 10%). […] Therefore, we also tested binary mixtures as well as a ternary and a quaternary mixture.
We ascertained if such synergy might also exist with other well established cryoprotectants such as betaine or trehalose. […]

HCT 115 cells = experiment: Freeze-thaw cryoprotection of HCT 115 cells, crystal violet stain density (cell yield); format: cell-based; details: glutamate in OptiMEM, 96 hours growth after thaw
Procedure: FIG. 3. Cryoprotectant activity of glutamate requires concentrations greater than 50 mM. The dose response relationship of glutamate and its ability to impart cryoprotective activity to OptiMeM prompted the question of our findings being extensible to other cell types such as HCT 115 cells (FIG. 2). Cells were prepared as described above in OptiMEM medium containing either no additions, 7.5% DMSO, 50 mM glutamate, 150 mM glutamate, 250 mM glutamate, or 350 mM glutamate. Thawed cells were plated, washed at 24 hours to remove debris, and allowed to grow for a total of 96 hours, at which time they were fixed with 10% formol (15 minutes). Fixed cultures were stained with 0.2% crystal violet for 2 hours, destained in 4 changes of distilled water, dried and scanned on an Epson scanner at 1200 dpi (panel A). The density of stain from each culture, corresponding to cell yield, was quantified using ImageJ (NIH). The density of each culture was plotted in a bar graph and is shown in panel B. The stained 6-well plate containing each culture is shown in panel A, with insets showing a photograph from representative cultures visualized with a 4× objective after staining. The order of the samples in the plate shown in panel A is (left to right, top to bottom): media alone, media+7.5% DMSO, media+50 mM glutamate, media+150 mM glutamate, media+250 mM glutamate, media+350 mM glutamate. […]

RBCs = details: 1.5M proline, only in the presence of trehalose; cited from earlier work
mouse oocytes = details: 2M proline, in the presence of DMSO and ethylene glycol; cited from earlier work

In the case of `NCC(=O)O` [glycine], the “increase in post-thaw recovery above that obtained with the control” value (from here on “increase … with the control”) [1] is given as “approximately 20%”.
In the case of `C[S+](C)[O-]` [DMSO, Dimethylsulfoxide], the “cryoprotection as measured by cell yield” value ([2]; DMSO at 1%, saline, -80° C.) is reported as “cryoprotective activity was apparent”, the “cryoprotection as measured by cell yield” value ([2]; DMSO at 3% and 10%, saline, -80° C.) is reported as “capable cryoprotective agent” and the “attachment of cells at 23 hours after plating thawed cells” value (HEK293 cells; 7.5% DMSO in OptiMEM or DMEM containing 10% serum) is reported as “do attach”.
In the case of `[Cl-].[Na+]` [NaCl], the “cryoprotection by increased ionic strength” value (cells) is reported as “does not provide any significant cryoprotection”.
With `N[C@@H](CCC(=O)O)C(=O)O` [glutamate] the “cryoprotection as measured by cell yield” value ([2]; glutamate as a sole agent, comparable to 3% and 10% DMSO) was “significant cryoprotection”, the “post-thaw viability 23 hours after plating” value (HEK293 cells; 100 mM glutamate in OptiMEM) was “some extended post-thaw viability” and the “post-thaw viability and attachment 23 hours after plating” value (HEK293 cells; 200 mM and 300 mM glutamate in OptiMEM) was “increased viability”. For the same compound, the “entry into the growth cycle compared to cells in medium alone” value (HEK293 cells; 0.3M glutamate in OptiMEM) was “improved entry into the growth cycle”, the “attachment of cells at 23 hours after plating thawed cells” value (HEK293 cells; 0.3M glutamate pH 7.2 as sole cryoprotectant) was “attachment at least to the level of either medium containing DMSO” and the “post-thaw viability in initial survey of amino acids” value (HEK293 cells; HEK293 cells, compared among several amino acids) was “highest degree of post-thaw viability”. For the same compound, the “concentration required for cryoprotectant activity” value (HCT 115 cells) was “greater than 50 mM”.
For `O=C(O)[C@@H]1CCCN1` [proline], the “hemolysis of frozen cells” value (RBCs) is given as “able to reduce hemolysis”, the “increase … with the control” value [1] is given as “approximately 20%” and the “increase in implantation rate” value (mouse oocytes) is given as 6-10%.
For `NC(=O)CC[C@H](N)C(=O)O` [glutamine], the “increase … with the control” value [1] is listed as “approximately 20%”.
